Data on two compounds can be found in patent US11660324B2, “Copper complexes for treatment of neurodegenerative disorders” (ALS Therapy Development Institute, priority 2019, dated 2023).

The test system of one data set is male SOD1^G93A mice. Nature of the data set: Compound muscle action potential (CMAP), sciatic nerve / tibialis anterior. The format is in vivo. How it is done:
Compound muscle action potential (CMAP) was measured in mice given CuPTSM, CuATSM, or vehicle. CMAP is an electrophysiological technique that assess functional integrity of motor axons. The sciatic nerve is stimulated using implanted microelectrodes proving small electrical currents, and the response is measured in the innervated tibialis anterior (TA) muscle using an implanted recording electrode. It is known that the CMAP signal is decreased in the case of neuromuscular diseases, like in ALS patients, and recapitulated in the SOD1^G93A mouse model due to motor unit loss. In male SOD1^G93A mice, it has been shown that CMAP changes may happen as early as age day 50 and invariably worse after. In the present study, mice were treated once a day for 14 days with 2, 6, or 12 mg/kg CuPTSM; 10 or 30 mg/kg CuATSM; or vehicle (control). A total of 9 male mice were tested for each condition.
Prior to drug administration and assignment of mice to a cohort, CMAP was recorded for each mouse to establish a baseline measurement. Mice were then randomized into each treatment cohort, and administered the respective compounds and dosages of the cohort via oral gavage daily for two weeks. CMAP data was recorded at the end of the two weeks, and compared to the baseline measurements to calculate percent of baseline to illustrate the efficacy of CuPTSM and CuATSM compared to just vehicle.

Data set [1] is described as follows: Pharmacokinetics of CuPTSM compared to CuATSM (plasma and spinal cord) after single oral bolus. It is filed as in vivo. Particulars: single oral bolus 30 mg/kg, SOD1^G93A mice. On the procedure:
The SOD1^G93A transgenic mouse model of ALS has been the most widely used animal model since the 1990s. The mouse was genetically engineered to overexpress a mutant form of the human Cu/Zn superoxide dismutase 1 (SOD1) gene harboring an ALS-associated glycine to alanine mutation at amino acid position 93 (G93A). Currently, the clinical strategy for the treatment of ALS with CuATSM is to escalate human dosing until ALS patients show plasma levels equivalent to those seen in mice given 30 mg/kg/day.
To compare the effects of CuPTSM to CuATSM in vivo, a single bolus of 30 mg/kg CuPTSM or 30 mg/kg CuATSM in an oral suspension of 0.5% methylcellulose/0.4% TWEEN-80/0.9% normal saline was administered to SOD1^G93A mice. Absorption half-life, elimination half-life, and Cmax measurements were taken from both plasma and spinal cord samples to measure drug exposure of CuPTSM or CuATSM for up to 6 hr after administration of drug.
Similar measurements were recorded for concentrations of CuPTSM and CuATSM in the spinal cord. […] As with the plasma concentrations, the spinal cord concentrations of CuATSM remained constant, even 6 hr after administration (FIG. 2B).

Data set [2] has as its system SOD1^G93A mice. Nature of the data set: Onset of paresis by neurological scoring. It is filed as in vivo. On the procedure: (§1) To test the efficacy of CuPTSM compared to CuATSM, mice were tested for delays in paresis and overall lifespan. Mice were given 6 mg/kg CuPTSM (n=32), 30 mg/kg CuATSM (n=32), and 100 mg/kg CuATSM (n=32) once a day to assess disease progression, and identify drug-induced changes in SOD1^G93A mice compared to their respective vehicle-only control mice. Neurological scoring to test the onset of paresis for each mouse was performed throughout the study according to the protocol as disclosed in Hatzipetros et al. (2015, J. Visualized Experiments. doi:10.3791/53257), incorporated herein by reference in its entirety. Briefly, mice were scored on a scale of NS 0 (pre-symptomatic) to NS 4 (humane end-point) based on a combination of a tail suspension test, a walking test, and a “righting reflex” test.
(§2) To compare the effects of CuPTSM administered at a much lower dose than CuATSM, mice were administered 6 mg/kg […] and survival and onset of paresis were measured as before.

The test system of the next data set is mice. Nature of the data set: Tolerability in mice (previous studies). It is filed as in vivo. Particulars: 30 mg/kg.
A short description of data set [3]: Pharmacokinetic simulation of repeated dosing, linear kinetics assumed. The arrangement: species or system mice. Conditions: simulation from single-dose PK parameters. How it is done: FIG. 3A is a simulation using PK parameters derived from the experiment of FIG. 1A and FIG. 1B, assuming linear pharmacokinetics. Plasma concentrations (ng/mL) in mice receiving 6 mg/kg CuPTSM, 30 mg/kg CuATSM, or 100 mg/kg CuATSM are depicted over time (hours). FIG. 3B is a simulation using PK parameters derived from the experiment of FIG. 1A and FIG. 1B, assuming linear pharmacokinetics. Spinal cord concentrations (ng/mL) in mice receiving 6 mg/kg CuPTSM, 30 mg/kg CuATSM, or 100 mg/kg CuATSM are depicted over time (hours).
Using the data and parameters derived from the above experiments using a single bolus of 6 mg/kg CuPTSM, 30 mg/kg CuATSM, or 100 mg/kg CuATSM, plasma and spinal cord concentrations were recorded on a plot over time (hours) to illustrate pharmacokinetic simulations over time. Linear kinetics were assumed. […] Similar results were obtained when concentrations were measured in spinal cord samples (FIG. 3B).

The test system of data set [4] is SOD1^G93A mice. Nature of the data set: Survival / lifespan. The format is in vivo. How it is done:
as §1
Survival for each cohort was also tracked throughout the study.
as §2

Molecules are shown by their SMILES.

Regarding `CN=C([S-])N/N=C(C)/C(C)=N/NC([S-])=NC.[Cu+2]` [CuATSM], the “CMAP change from baseline compared to vehicle” value (from here on “CMAP change from baseline”) in the data set on male SOD1^G93A mice (10 mg/kg oral gavage once a day for 14 days) and in the data set with male SOD1^G93A mice (30 mg/kg oral gavage once a day for 14 days) was “no significant difference in CMAP measurements” throughout. Also, the absorption half-life in data set [1] (plasma) was 0.24 h; in data set [1] (spinal cord), 0.65 h. Moreover, the elimination half-life turned out to be 13.7 h in data set [1] (plasma) and 13.8 h in data set [1] (spinal cord). The “plasma Cmax” value in data set [1] (plasma) was found to be 198 ng/mL. The compound further registered a Cmax in data set [1] (spinal cord) of 2 ng/mL. In addition, the “onset of paresis compared to control” value in the data set on SOD1^G93A mice [2] (6 mg/kg once a day) is on record as “no significant improvement in onset of paresis”; in the data set with SOD1^G93A mice [2] (30 mg/kg once a day), “delaying onset over the control”; in the data set on SOD1^G93A mice [2] (100 mg/kg once a day) it was “delaying onset over the control”. The tolerability in mice result in the data set on mice is given as “well-tolerated”. Further, the “simulated plasma concentration before the next dose” value in data set [3] (30 mg/kg) and in data set [3] (100 mg/kg) was “did not return to 0 ng/mL prior the next dose” throughout. For the same compound, the “survival compared to control” value in the data set with SOD1^G93A mice [4] (6 mg/kg once a day) was “no significant difference in survival”; with SOD1^G93A mice [4] (30 mg/kg once a day), “increase in survival over the control counterparts”; in the data set with SOD1^G93A mice [4] (100 mg/kg once a day) it was “increase in survival over the control counterparts”.
For `CN=C([S-])N/N=C/C(C)=N/NC([S-])=NC.[Cu+2]` [CuPTSM, copper PTSM], the “CMAP change from baseline” value in the data set with male SOD1^G93A mice (2 mg/kg oral gavage once a day for 14 days) is “significantly greater change from baseline”. Further, the “CMAP change from baseline” value in the data set on male SOD1^G93A mice (6 mg/kg oral gavage once a day for 14 days) is listed as “significantly greater change from baseline”. Also, in the data set with male SOD1^G93A mice (12 mg/kg oral gavage once a day for 14 days), the “CMAP change from baseline” value is listed as “significantly greater change from baseline”. For the same compound, in data set [1] (plasma), the absorption half-life turned out to be 0.54 h, the elimination half-life was determined as 2.44 h and the “plasma Cmax” value was 1565 ng/mL. In data set [1] (spinal cord), this compound returned a Cmax of 7.27 ng/mL, an absorption half-life of 1.0 h and an elimination half-life of 1.9 h. In the data set with SOD1^G93A mice [2] (6 mg/kg once a day), the “delay of onset of paresis compared to CuATSM 30 and 100 mg/kg groups (each over its respective control)” value is recorded as “significantly delayed onset of paresis over CuATSM”; the “onset of paresis compared to control” value is “delaying onset over the control”. Moreover, the tolerability in mice result with mice was “toxic to mice”. In addition, in data set [3] (6 mg/kg), the “simulated plasma concentration before the next dose” value was “plasma levels returned to 0 ng/mL prior to the next dose”. Further, in the data set on SOD1^G93A mice [4] (6 mg/kg once a day), the “survival compared to CuATSM 30 and 100 mg/kg groups” value is listed as “markedly improved survival”; the “survival compared to control” value is “increase in survival over the control counterparts”.

What is called Cmax is the highest concentration seen after dosing.
